Test results: US4199579A, “Carbamates of 2-haloergolines and 2-haloergolenes and process for the preparation thereof” (priority 1975, dated 1980)
In brackets after ≈: the same amount, converted by molar mass. Where a name gives a salt, the structure may show the parent alone. Read-outs that look alike come from different tables or passages of the source.

Legend:
Beagle dogs = test: 7-month oral administration to Beagle dogs; type: in vivo, dog; conditions: 7 months, about 8 mg/kg per oral route
[1] = system: isolated ileum of guinea pig; test: AntiBaCl2 activity in vitro (c): antagonism of the spasmogenic action of barium chloride on the isolated ileum; type: cell-based; conditions: Cavia porcellus, read-out: AntiBaCl2 (c) vitro EC50
Description: (c) Magnus, Pflugers Arch.Ges.Physiol. 102, 123 (1904)
The substance antagonizes the spasmogenic action of the barium chloride on the isolated ileum of guinea pig at dosages of between 1 and 5 μg/ml. […] On the isolated caudal arteria of rat, the compound II inhibits the vaso-constricting effect as caused by the perfusion with hyperpotassium Ringer's solution.

serotonin = test: Anti-serotoninic activity in vitro; type: cell-based; conditions: ratio to alpha-blocking concentration
acetylcholine = test: Anti-acetylcholinic activity in vitro; type: cell-based; conditions: ratio to alpha-blocking concentration
anaesthetized rat = test: Arterial pressure in the anaesthetized rat; type: in vivo; conditions: iv, e.v., read-out: dosage from which arterial pressure is reduced
Description: (§1) In the anaesthetized cat and rat, the compound causes the arterial pressure to be reduced, starting from dosages of 50 and 30 μg/kg e.v. respectively. In the "pithed" rat the compound, when intravenously administered, antagonizes the hypertensive effect of the adrenaline (ED-50 46 mg/kg).

anaesthetized cat = test: Arterial pressure in the anaesthetized cat; type: in vivo; conditions: Felis catus, iv, e.v., read-out: dosage from which arterial pressure is reduced
Description: as §1

[2] = system: alpha-adrenergic receptors; test: Protection of mice from the lethal effect of adrenaline; type: in vivo; conditions: mouse
"pithed" rat = test: Antagonism of the hypertensive effect of adrenaline in the pithed rat; type: in vivo; conditions: iv, intravenously, read-out: ED-50 antagonizing the hypertensive effect of adrenaline
Description: as §1

[3] = system: alpha-adrenergic receptors; test: Antiadrenalic (antiadrenergic) activity in vitro (a): antagonism of the spasmogenic effect of adrenaline on the seminal vesicle; type: cell-based, guinea pig
Excerpt: More particularly the novel compounds display a vasodilatory activity on the peripheral circulatory system, an hypotensive activity and a spasmolytic effect on the gastrointestinal smooth muscles or a blocking activity towards the alpha-adrenergic receptors, both in "vitro" and in "vivo".
(a) J. Brugger, Helv. Physiol. Pharmacol. Acta 3, 117 (1945)
The product is antagonizing the spasmogenic effect of the adrenaline on the seminal vesicle of guinea pig at concentrations of between 0.1 and 10 pg/ml, as well as the vaso- constricting effect of the noradrenaline on the isolated and perfused caudal arteria of rat, at dosages of between 1 and 10 μg total. Furthermore it antagonizes the contracturing effect of adrenaline and noradrenaline on the "vas deferens" of guinea pig and rat, at concentrations of 0.1 to 10 ng/ml.

histamine = test: Anti-histaminic activity in vitro; type: cell-based; conditions: ratio to alpha-blocking concentration
[4] = system: alpha-adrenergic receptors; test: Antiadrenalic activity in vivo (b): protection of rats from the lethal effect of adrenaline; set-up: species or system rat; conditions: for Antiadrenalic activity (b) vivo ED50: Table 2; for ED50 protecting rats from the lethal effect of adrenaline / activity higher than that of nicergoline: rat
[5] = system: central nervous system (CNS); test: CNS behaviour tests (swimming of the rat, reserpine ptosis, tetrabenazine catatonia, motility and exploration, behaviour); type: in vivo, rat; mouse; rabbit; dog
Excerpt: The compound belongs to the class of the ergolene derivatives in which substances are found which cause stimulating effects on the central nervous system (CNS); several behaviour tests have been carried out on animals, in order to assess a possible exciting and hallucinogen action.

Acute toxicity in mice = type: in vivo, mouse; conditions: mouse, in vivo, mouse
Excerpt: (§2) |Toxicity LD50 mice orally

ptosis from reserpine = test: Antagonism to ptosis from reserpine; type: in vivo; conditions: po, read-out: Antagonism to ptosis from reserpine ED100
Anti-Parkinson activity = test: Anti-Parkinson activity; type: in vivo; conditions: po; orally
mice = test: Acute toxicity in mice; type: in vivo, mouse; conditions: acute toxicity
Excerpt: as §2

Anorexia = test: Anorexia; type: in vivo; conditions: po; orally
Antidepressant activity = test: Antidepressant activity; type: in vivo; conditions: route not given
Excerpt: (§3) Coming now to examining the anti-asthmatic pharmaceutical compositions it has been ascertained that the compound described as D-2-bromo-6-methyl-8beta-(morpholinocarbolynoxymethyl)-ergoline, corresponding to the formula (4) is endowed with quite special [drawing 81] which render it particularly recommendable for the therapy of asthma. The compound of the formula (4) has the empirical formula C21 H26 N3 O3 Br and a mol. wt. of 448.38. It gives, with mineral and organic acid of nontoxic and pharmacologically acceptable nature, a number of salt. These are soluble in water as well as in the physiological solutions. Such are for example the maleate C25 H30 N3 O7 Br, m.p. 213° C.-216° C., or the methanesulfonate C22 H30 N3 O6 BrS, m.p. 265° C.-266° C. and can be prepared according to the conventional methods by treating the compound (4) with the equivalent quantities of the acid in an aqueous medium or in appropriate organic solvents and their mixtures such as the alcohols, the ethers, the lower aliphatic ketones and others, taken individually or in appropriate mixtures with each other as will be detailed in the Examples hereinafter. The pharmacological activity of the compound of formula (4) is unfolded in appropriate assays, carried out on the test animals and is especially conspicuous in the following test runs: […]

[6] = molecular target: alpha-adrenergic receptors; conditions: in vitro; comparison compound, reference (d) or (e); cited from earlier work
[7] = system: alpha-adrenergic receptors; conditions: e.v.; comparison compound, reference (e); cited from earlier work
Myorelaxing activity = test: Myorelaxing activity; type: in vivo; conditions: route not given
Excerpt: as §3

[8] = iv, e.v., Table 2, read-out: DL50 e.v. in the mouse

| Molecule | EC50 [1] | Antiadrenalic activity (a) vitro EC50 [3] | Antiadrenalic activity (b) vivo ED50 ([4]; e.v.) | LD50 (Acute toxicity in mice; [8]) | further results |
| --- | --- | --- | --- | --- | --- |
| CN1C[C@H](COC(=O)N2CCCCCC2)C[C@@H]2c3cccc4[nH]c(Br)c(c34)C[C@H]21 [Example 2, D-2-bromo-6-methyl-8beta-(perhydroazepinylcarbonyloxymethyl)-ergoline] | 3.1 µg/mL (≈ 6.73 µM) | 0.0017 ng/mL | 0.008 mg/kg | 39.4 mg/kg | macroscopic or microscopic alterations of the main organs (Beagle dogs): did not cause macroscopic or microscopic alterations; modifications of the weight, hematological and hematochemical parameters (Beagle dogs): did not cause modifications; anti-serotoninic activity: concentration higher than that showing the alpha-blocking effect (serotonin): 200 times; anti-acetylcholinic activity: concentration higher than that showing the alpha-blocking effect (acetylcholine): 4500 times; minimal effective dose (anaesthetized rat): ≥ 0.03 mg/kg; minimal effective dose (anaesthetized cat): ≥ 0.05 mg/kg; ED50 protecting mice from the lethal effect of adrenaline ([2]; e.v.): 0.051 mg/kg; ED50 protecting mice from the lethal effect of adrenaline ([2]; per os): 0.61 mg/kg; ED50 ("pithed" rat): 0.046 mg/kg; anti-histaminic activity: concentration higher than that showing the alpha-blocking effect (histamine): 800 times; ED50 protecting rats from the lethal effect of adrenaline ([4]; e.v.): 0.008 mg/kg; activity higher than that of nicergoline ([4]; intravenously): 2.5 times; activity higher than that of nicergoline ([4]; orally): 24 times; ED50 protecting rats from the lethal effect of adrenaline ([4]; per os): 0.37 mg/kg; ECG modifications ([5]; in vivo): ECG modifications of sedative type were always detected; exciting property in behaviour tests ([5]; rat, mice, rabbit, dog): no evidence were found of any exciting property |
| CN(C)C(=O)OC[C@@H]1C[C@@H]2c3cccc4[nH]c(Br)c(c34)C[C@H]2N(C)C1 [Example 4, D-2-bromo-6-methyl-8beta-(N,N-dimethylcarbamoyloxymethyl)-ergoline] | 10 µg/mL (≈ 24.6 µM) | 10 ng/mL | 0.0112 mg/kg | 7.1 mg/kg |  |
| CCN(CC)C(=O)OC[C@@H]1C[C@@H]2c3cccc4[nH]c(Br)c(c34)C[C@H]2N(C)C1 [Example 6, D-2-bromo-6-methyl-8beta-(N,N-diethylcarbamoyloxymethyl)-ergoline] | 3.8 µg/mL (≈ 8.75 µM) | 4.7 ng/mL | 0.0803 mg/kg | 13.7 mg/kg |  |
| CN1C[C@H](COC(=O)N2CCC2)C[C@@H]2c3cccc4[nH]c(Br)c(c34)C[C@H]21 [Example 7, D-2-bromo-6-methyl-8beta-(azetidinylcarbonyloxymethyl)-ergoline] | 1.4 µg/mL (≈ 3.35 µM) | 5 ng/mL | 0.05 mg/kg | 8.7 mg/kg |  |
| CN1C[C@H](COC(=O)N2CCCC2)C[C@@H]2c3cccc4[nH]c(Br)c(c34)C[C@H]21 [Example 10, D-2-bromo-6-methyl-8beta-(pyrrolydycarbonyloxy-methyl)-ergoline maleate] | 4 µg/mL | 2 ng/mL | 0.0155 mg/kg | 15 mg/kg |  |
| CN1C[C@H](COC(=O)N2CCCCC2)C[C@@H]2c3cccc4[nH]c(Br)c(c34)C[C@H]21 [Example 12, D-2-bromo-6-methyl-8beta-(piperidinocarbonyloxymethyl)-ergoline] | 3.5 µg/mL (≈ 7.84 µM) | 3.7 ng/mL | 0.0202 mg/kg | 50 mg/kg |  |
| CN1C[C@H](COC(=O)N2CCCCCC2)C[C@@H]2c3cccc4c3c(c(Br)n4C)C[C@H]21 [Example 14, D-2-bromo-1,6-dimethyl-8beta-(perhydroazepinylcarbonyloxymethyl) ergoline] |  |  |  |  | ED100 (ptosis from reserpine): 0.01 mg/kg; ED100 (Anti-Parkinson activity): 20 mg/kg; LD50 (Acute toxicity in mice; iv, mice, intravenously, compound (3), read-out: Toxicity LD50 mice, intravenously): 65 to 83 mg/kg; LD50 (Acute toxicity in mice; po, mice, orally, compound (3), read-out: Toxicity LD50 mice, orally): 600 mg/kg; acute toxicity in words (mice): well tolerated and poorly toxic; ED100 (Anorexia): 5 mg/kg |
| CN1CCN(C(=O)OC[C@@H]2C[C@@H]3c4cccc5[nH]c(Br)c(c45)C[C@H]3N(C)C2)CC1 [Example 18, D-2-bromo-6-methyl-8beta-(4,methylpiperazinyl-carbonyloxymethyl)-ergoline] | > 100 µg/mL | 50 ng/mL | > 0.32 mg/kg | 27.3 mg/kg |  |
| CN1C[C@H](COC(=O)N2CC3CCC(CC3)C2)C[C@@H]2c3cccc4[nH]c(Br)c(c34)C[C@H]21 [Example 20, D-2-bromo-6-methyl-8beta-(3-azabicyclo [3,2, 2]-nonanylcarbonyloxymethyl)-ergoline] | > 100 µg/mL | 375 ng/mL | 0.198 mg/kg | 50 mg/kg |  |
| N[C@@H](Cc1ccc(O)c(O)c1)C(=O)O [L-dopa, reference compound] |  |  |  |  | ED100 (Anti-Parkinson activity): 300 mg/kg |
| CC(N)Cc1ccccc1 (centres unmarked) [amphetamine, reference compound] |  |  |  |  | ED100 (Anorexia): 5 mg/kg |
| CN(C)CCCN1c2ccccc2CCc2ccccc21 [imipramine, reference compound] |  |  |  |  | ED100 (ptosis from reserpine; orally): 25 mg/kg; ED100 (Antidepressant activity): 25 mg/kg |
| CO[C@]12C[C@@H](COC(=O)c3cncc(Br)c3)CN(C)[C@@H]1Cc1cn(C)c3cccc2c13 [nicergoline, reference compound] |  |  |  | 74.3 mg/kg | EC50 ([1]; in vitro): 2.1 µg/mL (≈ 4.34 µM); Antiadrenalic activity (a) vitro EC50 [6]: 0.007 µg/mL; Antiadrenalic activity (b) vivo ED50 [7]: 0.02 mg/kg |
| CCC1(c2ccccc2)C(=O)NC(=O)NC1=O [phenobarbital, reference compound] |  |  |  |  | ED100 (Myorelaxing activity): 100 mg/kg |
| dihydroergotoxine |  |  |  |  | Antiadrenalic activity (a) vitro EC50 [6]: 0.078 µg/mL; Antiadrenalic activity (b) vivo ED50 [7]: 0.05 mg/kg |
